Test results: ChEMBL document CHEMBL5357012, “Dual N6/C7-Substituted 7-Deazapurine and Tricyclic Ribonucleosides with Affinity for G Protein-Coupled Receptors” (ACS Med Chem Lett, 2024)
pKi: −log10 of the molar value.

What was measured:
[1] = target: 5-hydroxytryptamine receptor 2B (Homo sapiens, UniProt P41595)
Description: Inhibition of human 5-HT2B receptor assessed as inhibition constant by microbeta scintillation counting method

[2] = target: Kappa-type opioid receptor (Homo sapiens, UniProt P41145); test: Inhibition of human KOR assessed as inhibition constant by microbeta scintillation counting method
[3] = Cytotoxicity against human MRC5 cells assessed as reduction in cell viability measured after 3 days by resazurin dye based fluorimetric analysis

5-hydroxytryptamine receptor 2B, sequence (P41595 whole entry): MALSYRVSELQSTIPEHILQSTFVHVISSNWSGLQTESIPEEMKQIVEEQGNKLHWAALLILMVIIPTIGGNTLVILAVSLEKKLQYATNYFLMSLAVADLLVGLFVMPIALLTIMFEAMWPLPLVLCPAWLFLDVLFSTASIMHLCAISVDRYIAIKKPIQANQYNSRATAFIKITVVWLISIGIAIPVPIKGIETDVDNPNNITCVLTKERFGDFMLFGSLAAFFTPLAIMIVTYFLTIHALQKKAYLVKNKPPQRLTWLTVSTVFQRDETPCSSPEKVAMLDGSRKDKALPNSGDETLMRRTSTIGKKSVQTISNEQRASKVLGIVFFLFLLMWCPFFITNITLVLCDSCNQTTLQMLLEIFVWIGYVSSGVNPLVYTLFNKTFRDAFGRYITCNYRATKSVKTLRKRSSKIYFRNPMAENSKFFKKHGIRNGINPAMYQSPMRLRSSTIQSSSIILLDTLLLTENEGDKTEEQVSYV
Kappa-type opioid receptor, sequence (P41145 whole entry): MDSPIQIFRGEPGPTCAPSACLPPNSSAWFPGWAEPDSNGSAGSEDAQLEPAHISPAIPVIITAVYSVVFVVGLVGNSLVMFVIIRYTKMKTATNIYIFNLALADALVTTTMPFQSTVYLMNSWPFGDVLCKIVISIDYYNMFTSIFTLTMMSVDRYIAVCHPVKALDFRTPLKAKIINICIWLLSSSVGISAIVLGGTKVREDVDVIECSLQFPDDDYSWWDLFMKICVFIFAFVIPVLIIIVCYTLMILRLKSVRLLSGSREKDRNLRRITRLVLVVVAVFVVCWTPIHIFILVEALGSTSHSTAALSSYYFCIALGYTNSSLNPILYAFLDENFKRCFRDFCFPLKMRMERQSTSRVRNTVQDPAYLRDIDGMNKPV

| Structure (SMILES) | pKi [1] | pKi [2] | CC50 at 72 h [3] [nM] |
| --- | --- | --- | --- |
| OC[C@H]1O[C@@H](n2cc(C(F)(F)F)c3c(NCc4ccccc4)ncnc32)[C@H](O)[C@@H]1O | 6.30 | 5.74 | – |
| OC[C@H]1O[C@@H](n2cc(C(F)(F)F)c3c(NCc4ccccc4F)ncnc32)[C@H](O)[C@@H]1O | 5.92 | – | > 64000 |
| C[C@@H](Nc1ncnc2c1c(C(F)(F)F)cn2[C@@H]1O[C@H](CO)[C@@H](O)[C@H]1O)c1ccccc1 | 6.15 | – | – |
| OC[C@H]1O[C@@H](n2cc(C(F)(F)F)c3c(NCc4ccc(Cl)cc4)ncnc32)[C@H](O)[C@@H]1O | 6.08 | – | – |
| OC[C@H]1O[C@@H](n2cc(C(F)(F)F)c3c(NCc4cccc(Cl)c4)ncnc32)[C@H](O)[C@@H]1O | 6.21 | – | > 64000 |
| C[C@H](Nc1ncnc2c1c(C(F)(F)F)cn2[C@@H]1O[C@H](CO)[C@@H](O)[C@H]1O)c1ccccc1 | – | 5.72 | – |
| OC[C@H]1O[C@@H](n2cc(C(F)(F)F)c3c(NCc4ccccc4Cl)ncnc32)[C@H](O)[C@@H]1O | 6.26 | – | – |
